The source of these data is patent US12391658B2, “Sulfoxide and sulfone glucokinase activators and methods of use thereof” (vTv Therapeutics LLC, priority 2020, dated 2025).

Data set [1] has as its target T1, breast cancer resistance protein (BCRP) (Homo sapiens, UniProt Q9UNQ0).
T1 construct: endogenous in cells
T1 sequence (Q9UNQ0 1-655): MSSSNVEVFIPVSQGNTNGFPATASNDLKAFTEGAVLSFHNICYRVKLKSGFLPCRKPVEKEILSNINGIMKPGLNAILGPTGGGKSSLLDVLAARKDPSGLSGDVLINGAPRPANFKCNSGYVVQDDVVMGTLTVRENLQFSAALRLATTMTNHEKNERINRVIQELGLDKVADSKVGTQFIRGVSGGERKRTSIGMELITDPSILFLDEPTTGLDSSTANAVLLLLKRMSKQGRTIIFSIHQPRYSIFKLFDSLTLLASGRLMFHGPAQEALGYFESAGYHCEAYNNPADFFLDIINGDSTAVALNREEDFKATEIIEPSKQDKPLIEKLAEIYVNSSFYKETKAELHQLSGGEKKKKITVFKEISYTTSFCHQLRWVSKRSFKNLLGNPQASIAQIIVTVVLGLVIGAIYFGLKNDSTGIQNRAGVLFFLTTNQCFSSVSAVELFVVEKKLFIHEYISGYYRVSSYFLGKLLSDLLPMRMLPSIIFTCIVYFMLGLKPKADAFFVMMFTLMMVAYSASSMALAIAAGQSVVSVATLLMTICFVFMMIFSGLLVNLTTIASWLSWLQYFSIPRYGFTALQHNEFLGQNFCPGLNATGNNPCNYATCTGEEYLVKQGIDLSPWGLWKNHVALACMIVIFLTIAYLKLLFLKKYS
Description: BCRP transporter inhibition. In kind it is in vitro ADME. As for the experimental part:
(§1) The cell-based bidirectional permeability assay (or monolayer efflux assay) is a method for determining transporter inhibition (such as P-glycoprotein (P-gp) or Breast Cancer Resistance Protein (BCRP)) potential of test compounds in drug discovery. The experimental protocol for this assay is well established and typically, bidirectional permeability of a known substrate is assessed alone and in the presence of a single concentration of test compound to estimate the inhibition potential.
(§2) The monolayer efflux assay, where the ratio of basolateral-to-apical (B→A) permeability versus apical-to-basolateral (A→B) permeability is compared with a value of 1, is regarded as the standard for identifying substrates. Due to concentration-dependent inhibition of active efflux on the apical side by inhibitors, the B→A permeability decreases whilst A→B permeability increases with ratio approaching unity as the dose of inhibitor increases. The affinity of inhibitor to efflux protein(s) may be studied by calculating the active flux that can be obtained from the B→A fluxes in the absence and presence of efflux inhibitors. Inhibition potency, determined by inhibitor concentration-dependent transport assay, is usually represented as an IC50 value, the concentration that gives 50% of maximum inhibition of a known P-gp or BCRP substrate. Specificity of the inhibitor to P-gp or BCRP may be determined by competitive assays, which involve a transport assay of a known substrate in the presence of known inhibitors (specific to various transporters) with and without test compounds. Thus, appropriate design of competitive inhibition assays using known selected substrates and modulators will show the specificity of an inhibitor towards an efflux pump.
(§3) The substrate and inhibitor potential of a test compound for the apical efflux transported breast cancer resistance protein (BCRP) may also be evaluated using a bidirectional permeability assessment where the controls are Ko143 (a potent inhibitor of BCRP) and E3S (estrone-3-sulphate, a substrate for BCRP) and across a range of test compound concentrations such as 1, 5, 20, 100, and 200 μg/mL or 1.6, 3.2, 16, 32, 160 and 320 μg/mL).
(§4) The Caco-2 permeability, P-gp substrate and inhibitory activity, and BCRP substrate and inhibitory activity of Sulfoxide-1, Sufloxide-1A, Sulfoxide-1B, Sulfone-1, and SM-1 was investigated using procedures similar to those described above.

Another data set can be described thus: Aqueous solubility. In kind it is physicochemical. The conditions noted are these: for aqueous solubility compared with SM-1: across a range of pH's. The source says:
The aqueous solubility of Sulfoxide-1, Sufloxide-1A, Sulfoxide-1B, Sulfone-1, and SM-1 was investigated.

In another data set the test system is Caco-2 monolayers. Description: Caco-2 permeability. In kind it is in vitro ADME, human. Particulars: tested concentrations of 12.5 μg/mL and 50 μg/mL.
Description: Differentiated Caco-2 cells form a polarized epithelial cell monolayer that provides a physical and biochemical barrier to the passage of ions and small molecules. Using commercially available kits, the Caco-2 monolayer may be used as an in vitro model of the human small intestinal mucosa to predict the intestinal permeability or absorption of orally administered drugs. Researchers have shown a correlation for some molecules between the in vitro apparent permeability (Papp) across Caco-2 monolayers and the in vivo fraction absorbed.
The permeability of a compound may be evaluated in a bi-directional transport experiments at multiple concentrations (such as 1, 2, 5, 20, 100 and 200 μg/mL) using Caco-2 monolayers. The apparent permeability coefficients (Papp) for a compound may be calculated and compared with the permeability of a high permeability marker (such as labetalol) and a low permeability marker (such as mannitol).
as §4
(§5) As summarized in Table 2 below, except for Sulfoxide-1B, all of the tested compounds had low Caco-2 cell permeability and were weak efflux transporter substrates at the tested concentrations of 12.5 μg/mL and 50 μg/mL.

The next data set relates to efflux transporter. Nature of the data set: Efflux substrate activity (monolayer efflux assay). The data set is classed as in vitro ADME. The conditions noted are these: tested concentrations of 12.5 μg/mL and 50 μg/mL. As for the experimental part:
as §1, §2
The potential for P-glycoprotein (P-gp) substrate inhibitory activity of a test compound may be evaluated by determining a test compound's Caco-2 permeability in the presence or absence of a P-gp inhibitor such as Cyclosporin A (CsA) or verapamil.
as §3, §4, §5

A further data set addresses T2, P-glycoprotein (P-gp) (Homo sapiens, UniProt P08183).
T2 construct: the P-gp transporter expressed on Caco-2 cell monolayers; endogenous in cells; host or cells: Caco-2
Description: P-gp transporter inhibition. The data set is classed as in vitro ADME. As for the experimental part: as §1, §2
The potential inhibitory activity of a compound on the P-gp transporter expressed on Caco-2 cell monolayers may be investigated in experiments monitoring the bi-directional transport of a test compound in the presence or absence of a P-gp inhibitor such as Cyclosporin A (CsA) or verapamil.
The potential inhibitory activity of a compound on the P-gp transporter expressed on Caco-2 cell monolayers may also be investigated in experiments monitoring the bi-directional transport of [^3H]-digoxin in the presence of increasing concentrations of a test compound (such as 1, 5, 20, 100, and 200 μg/mL or 1.6, 3.2, 16, 32, 160 and 320 μg/mL). If the efflux of [^3H]-digoxin is not inhibited by a test compound, the test compound is likely a poor inhibitor of P-gp. If the efflux of [^3H]-digoxin is inhibited by a test compound, the IC50 value may be calculated using a non-linear regression of permeability data collected at various concentrations.
as §4

[2] abbreviates: 0.1N HCl, simulated gastric fluid, 0.1N HCl, read-out: Solubility.
The mark [3] stands for this setting: acetate buffer, pH 4.5, aqueous buffer, Acetate Buffer pH 4.5, read-out: Solubility.
Where [4] appears, read: phosphate buffer, pH 6.5, aqueous buffer, Phosphate Buffer pH 6.5, read-out: Solubility.

Values after ≈ are worked out from the molar mass of the structure shown. Read-outs that look alike come from different tables or passages of the source. Marks after values point to notes of the source that are not given here.

T2 sequence (P08183 whole entry): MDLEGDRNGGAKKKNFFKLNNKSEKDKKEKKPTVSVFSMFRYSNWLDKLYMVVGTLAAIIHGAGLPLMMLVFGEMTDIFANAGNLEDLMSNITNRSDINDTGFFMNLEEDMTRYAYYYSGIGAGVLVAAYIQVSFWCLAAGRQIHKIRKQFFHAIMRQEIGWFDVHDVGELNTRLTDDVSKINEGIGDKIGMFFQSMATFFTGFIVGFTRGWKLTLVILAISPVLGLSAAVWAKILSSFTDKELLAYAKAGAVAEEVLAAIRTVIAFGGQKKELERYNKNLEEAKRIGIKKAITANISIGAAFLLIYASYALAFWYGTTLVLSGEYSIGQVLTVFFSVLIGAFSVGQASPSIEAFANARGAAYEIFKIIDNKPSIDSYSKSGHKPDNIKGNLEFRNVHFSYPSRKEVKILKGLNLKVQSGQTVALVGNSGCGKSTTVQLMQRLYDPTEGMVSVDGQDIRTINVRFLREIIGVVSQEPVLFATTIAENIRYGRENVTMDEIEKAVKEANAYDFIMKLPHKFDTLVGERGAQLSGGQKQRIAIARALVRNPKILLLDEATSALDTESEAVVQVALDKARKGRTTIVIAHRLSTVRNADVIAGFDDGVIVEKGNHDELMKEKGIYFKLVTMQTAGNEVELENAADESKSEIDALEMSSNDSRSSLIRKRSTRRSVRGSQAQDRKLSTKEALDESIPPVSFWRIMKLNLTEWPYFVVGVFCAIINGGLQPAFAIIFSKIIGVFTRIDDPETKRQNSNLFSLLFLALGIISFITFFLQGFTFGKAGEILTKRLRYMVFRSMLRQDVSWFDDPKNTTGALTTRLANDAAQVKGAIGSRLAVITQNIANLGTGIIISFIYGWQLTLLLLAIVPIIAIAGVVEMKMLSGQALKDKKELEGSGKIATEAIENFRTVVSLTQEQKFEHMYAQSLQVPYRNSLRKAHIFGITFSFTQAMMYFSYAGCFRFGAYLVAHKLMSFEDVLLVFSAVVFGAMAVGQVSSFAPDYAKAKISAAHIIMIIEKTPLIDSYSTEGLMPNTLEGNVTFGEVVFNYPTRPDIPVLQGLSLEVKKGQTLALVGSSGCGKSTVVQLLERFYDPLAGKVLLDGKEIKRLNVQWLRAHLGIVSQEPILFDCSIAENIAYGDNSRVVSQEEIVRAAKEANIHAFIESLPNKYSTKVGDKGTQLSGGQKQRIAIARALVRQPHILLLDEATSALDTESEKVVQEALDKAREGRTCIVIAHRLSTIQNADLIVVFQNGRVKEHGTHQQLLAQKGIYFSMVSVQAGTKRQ

With `CCCO[C@H]1CC[C@H](N(C(=O)Nc2ncc([S+]([O-])CC(=O)O)s2)C2CCCCC2)CC1` (single isomer, unassigned) [Sulfoxide-1A, {2-[3-Cyclohexyl-3-(trans-4-propoxy-cyclohexyl)-ureido]-thiazol-5-ylsulfinyl}-acetic acid], the IC50 in data set [1] is roughly 170 µM; on P-glycoprotein (P-gp), roughly 138 µM. Besides, the solubility was 120 µg/mL (≈ 0.254 mM) in the data set “Aqueous solubility” (setting [2]), 1630 µg/mL (≈ 3.46 mM) in “Aqueous solubility” (setting [3]) and 1940 µg/mL (≈ 4.11 mM) in “Aqueous solubility” (setting [4]). Also, the “aqueous solubility compared with SM-1” value in the data set “Aqueous solubility” was “much greater aqueous solubility than SM-1”. In the data set with Caco-2 monolayers, the “Caco-2 Permeability” value is “Low”. In addition, the “Efflux Transporter Substrate” value with efflux transporter is given as “Yes”.
On to `CCCO[C@H]1CC[C@H](N(C(=O)Nc2ncc(SCC(=O)O)s2)C2CCCCC2)CC1` [SM-1, {2-[3-cyclohexyl-3-(trans-4-propoxy-cyclohexyl)-ureido]-thiazol-5-ylsulfanyl}-acetic acid, reference compound], for which the “BCRP inhibitory activity, rank among the tested compounds” value (“BCRP inhibitory activity” for short) in data set [1] is on record as “strongest BCRP inhibitor”. In addition, the IC50 in data set [1] was 19.5 µM; against P-glycoprotein (P-gp), 115 µM. The solubility was found to be 0.44 µg/mL (≈ 0.000966 mM) in “Aqueous solubility” (setting [3]) and 21 µg/mL (≈ 0.0461 mM) in the data set “Aqueous solubility” (setting [4]). Moreover, in the data set on Caco-2 monolayers, the “Caco-2 Permeability” value is “Low”. In addition, the “Efflux Transporter Substrate” value in the data set with efflux transporter is reported as “Yes”.
For `CCCO[C@H]1CC[C@H](N(C(=O)Nc2ncc([S+]([O-])CC(=O)O)s2)C2CCCCC2)CC1` (single isomer, unassigned) [Sulfoxide-1B, {2-[3-Cyclohexyl-3-(trans-4-propoxy-cyclohexyl)-ureido]-thiazol-5-ylsulfinyl}-acetic acid], the “BCRP inhibitory activity” value in data set [1] is reported as “weakest BCRP inhibitors”. Also, the IC50 (in data set [1]; against P-glycoprotein (P-gp)) was greater than 212 µM throughout. Further, the results for the solubility in “Aqueous solubility” (0.1N HCl), in “Aqueous solubility” (Acetate Buffer pH 4.5) and in the data set “Aqueous solubility” (Phosphate Buffer pH 6.5) were 120 µg/mL (≈ 0.254 mM), 1850 µg/mL (≈ 3.92 mM) and 1990* μg/mL, respectively. In addition, in the data set “Aqueous solubility”, the “aqueous solubility compared with SM-1” value is given as “much greater aqueous solubility than SM-1”. Moreover, the “Caco-2 Permeability” value in the data set on Caco-2 monolayers is listed as “Moderate”. Also, the “Efflux Transporter Substrate” value with efflux transporter was “not an efflux transporter substrate and No”. Moreover, the “P-gp inhibitory activity, rank among the tested compounds” value at P-glycoprotein (P-gp) is “weakest P-gp inhibitor”.
For `CCCO[C@H]1CC[C@H](N(C(=O)Nc2ncc([S+]([O-])CC(=O)O)s2)C2CCCCC2)CC1` (relative stereo) [Sulfoxide-1, {2-[3-Cyclohexyl-3-(trans-4-propoxy-cyclohexyl)-ureido]-thiazol-5-ylsulfinyl}-acetic acid], the “BCRP inhibitory activity” value in data set [1] is recorded as “weakest BCRP inhibitors”. Further, the IC50 was greater than 212 µM in data set [1] and roughly 212 µM against P-glycoprotein (P-gp). In addition, the results for the solubility in the data set “Aqueous solubility” (setting [2]), in the data set “Aqueous solubility” (setting [3]) and in the data set “Aqueous solubility” (setting [4]) were 30 µg/mL (≈ 0.0636 mM), 2570 µg/mL (≈ 5.45 mM) and 2930 µg/mL (≈ 6.21 mM), respectively. The “aqueous solubility compared with SM-1” value in “Aqueous solubility” was “much greater aqueous solubility than SM-1”. Also, the “Caco-2 Permeability” value in the data set with Caco-2 monolayers is “Low”. Further, in the data set on efflux transporter, the “Efflux Transporter Substrate” value is recorded as “Yes”.
On to `CCCO[C@H]1CC[C@H](N(C(=O)Nc2ncc(S(=O)(=O)CC(=O)O)s2)C2CCCCC2)CC1` [Sulfone-1, {2-[3-Cyclohexyl-3-(trans-4-propoxy-cyclohexyl)-ureido]-thiazol-5-ylsulfonyl}-acetic acid], for which the “BCRP inhibitory activity” value in data set [1] was “weakest BCRP inhibitors”. The IC50 was greater than 205 µM in data set [1] and roughly 205 µM at P-glycoprotein (P-gp). The results for the solubility in “Aqueous solubility” (setting [2]), in “Aqueous solubility” (setting [3]) and in “Aqueous solubility” (setting [4]) were 10 µg/mL (≈ 0.0205 mM), 2070 µg/mL (≈ 4.24 mM) and 2100 µg/mL (≈ 4.31 mM), respectively. For the same compound, in “Aqueous solubility”, the “aqueous solubility compared with SM-1” value is on record as “much greater aqueous solubility than SM-1”. The “Caco-2 Permeability” value in the data set on Caco-2 monolayers is on record as “Low”. Besides, in the data set on efflux transporter, the “Efflux Transporter Substrate” value was “Yes”.
